Test system: patients with first or second degree lateral ankle sprain
Assay: Efficacy of HA on ankle sprain following periarticular administration (clinical study 1: HA; study 2: celecoxib or naproxen)
Type: in vivo, human
Details: for Percentage increase in Patient's Global Assessment (improved by one or more grades) / Mean Patient's Satisfaction Assessment (10 point scale) / Mean Physician's Satisfaction Assessment (10 point scale): study 2, oral BID for 7 days; for Mean VAS Weight-bearing (100 mm): study 2, oral BID for 7 days (celecoxib 200 mg, naproxen 500 mg)
Protocol: The study was conducted in accordance with good clinical practice and in compliance with the requirement of the International Conference on Harmonization and Declaration of Helsinki. On Day 1 (within 48 hours of the injury), the patients were examined to assess whether they meet all the inclusion criteria and none of the exclusion criteria after signing the informed consent. The inclusion criteria were: 18 years and older, first or second degree lateral ankle […] within 48 hours of administration of study drug, reported moderate (45-60 mm) to severe (>60 mm) ankle pain on full weight bearing on the Patient's Assessment of Ankle Pain using a 100 mm Visual Analogue Scale (VAS). This scale was available for the duration of the clinical follow-up. Patients with bilateral ankle […] injury, third-degree […], or previous ankle […] within 6 months were excluded. Also excluded were patients who had recently used anti-inflammatory drugs, muscle relaxants, or certain classes of psychotropic medications that could confound the results. In addition, patients with sensitivity or allergy to NSAIDs or sulfonamides as well as patients with a history of serious GI, renal, or hepatic disease were excluded. Patients with other rheumatic diseases or a history of drug or alcohol abuse were also excluded. After enrollment, patients received periarticular injections of HA (study 1) or an inhibitor of cyclooxygenase-2 or a NSAID (study 2). […] Eight to ten mg of HA (0.8-1.0 ml of HA) was injected, without anesthetic (study 1). Oral treatments with an inhibitor of cyclooxygenase-2, celecoxib 200 mg BID, or with a NSAID, naproxen 500 mg BID, were done for 7 days (study 2). Clinical assessments were performed at baseline, and then before treatment on Day 4 and Day 8 (end of study). […] In Table 1, 7 patients received HA. In Table 2, 199 patients received celecoxib and 198 patients received naproxen.

| SMILES | Percentage increase in Patient's Global Assessment (improved by one or more grades) (at day 4) | Mean VAS Weight-bearing (100 mm) (at day 4) | Mean Patient's Satisfaction Assessment (10 point scale) (at day 8) | Mean Physician's Satisfaction Assessment (10 point scale) (at day 8) | Percentage increase in Patient's Global Assessment (improved by one or more grades) (at day 8) | Mean VAS Weight-bearing (100 mm) (at day 8) |
| --- | --- | --- | --- | --- | --- | --- |
| Cc1ccc(-c2cc(C(F)(F)F)nn2-c2ccc(S(N)(=O)=O)cc2)cc1 [Celecoxib, celecoxib] | 71% | 31.9 mm | 8.8 | 8.7 | 89% | 15.0 mm |
| COc1ccc2cc([C@H](C)C(=O)O)ccc2c1 [Naproxen, naproxen] | 72% | 29.0 mm | 8.7 | 8.6 | 90% | 15.3 mm |
